# From ChEMBL document CHEMBL5390204, “Persephacin Is a Broad-Spectrum Antifungal Aureobasidin Metabolite That Overcomes Intrinsic Resistance in Aspergillus fumigatus” (J Nat Prod, 2023)
# How the values were obtained:
# Type in all cases: functional
# Pichia kudriavzevii [1] = test: Antifungal activity against Candida krusei ATCC 6258 (Y-7179) assessed as reduction in fungal viability incubated for 48 hrs by microplate reader analysis
# Nakaseomyces glabratus [2] = test: Antifungal activity against Candida glabrata 11 assessed as inhibition in fungal growth incubated for 48 hrs by microplate reader analysis
# [Candida] auris [3] = Antifungal activity against multidrug-resistant Candida auris 385 assessed as inhibition in fungal growth incubated for 48 hrs by microplate reader analysis; details: Candidozyma auris
# Nakaseomyces glabratus [4] = test: Antifungal activity against Candida glabrata 20 assessed as inhibition in fungal growth incubated for 48 hrs by microplate reader analysis
# Paecilomyces lilacinus = test: Antifungal activity against Paecilomyces lilacinus 165E10 assessed as reduction in fungal growth incubated for 48 hrs by microplate reader analysis; details: Purpureocillium lilacinum
# Candida albicans [5] = test: Antifungal activity against Candida albicans 14 assessed as inhibition in fungal growth incubated for 48 hrs by microplate reader analysis
# [Candida] auris [6] = Antifungal activity against multidrug-resistant Candida auris 381 assessed as inhibition in fungal growth incubated for 48 hrs in presence of 0% serum by microplate reader analysis; details: Candidozyma auris
# Candida albicans [7] = test: Antifungal activity against Candida albicans SC5314 assessed as reduction in fungal growth incubated for 48 hrs by microplate reader analysis
# Candida parapsilosis [8] = test: Antifungal activity against Candida parapsilosis 28 assessed as inhibition in fungal growth incubated for 48 hrs by microplate reader analysis; details: Lodderomyces parapsilosis
# Candida parapsilosis [9] = test: Antifungal activity against Candida parapsilosis ATCC 22019 (Y-12969) assessed as reduction in fungal growth incubated for 48 hrs by microplate reader analysis; details: Lodderomyces parapsilosis
# [Candida] haemuloni = Antifungal activity against multidrug-resistant Candida haemulonii 393 assessed as inhibition in fungal growth incubated for 48 hrs by microplate reader analysis; details: Candidozyma haemuli
# Aspergillus fumigatus [10] = test: Antifungal activity against Aspergillus fumigatus ATCC MYA-3627 assessed as inhibition in fungal growth incubated for 48 hrs in presence of 5% serum by microplate reader analysis
# Candida tropicalis [11] = test: Antifungal activity against Candida tropicalis ATCC750 (Y-12699) assessed as reduction in fungal growth incubated for 48 hrs by microplate reader analysis
# Pichia kudriavzevii [12] = test: Antifungal activity against Candida krusei ATCC 6258 (Y-7179) assessed as reduction in fungal growth incubated for 48 hrs by microplate reader analysis
# Candida albicans [13] = test: Antifungal activity against Candida albicans SC5314 assessed as reduction in fungal viability incubated for 48 hrs by microplate reader analysis
# Nakaseomyces glabratus [14] = test: Antifungal activity against Candida glabrata 17 assessed as inhibition in fungal growth incubated for 48 hrs by microplate reader analysis
# Candida albicans [15] = test: Antifungal activity against Candida albicans 3 assessed as inhibition in fungal growth incubated for 48 hrs by microplate reader analysis
# Nakaseomyces glabratus [16] = test: Antifungal activity against Candida glabrata 16 assessed as inhibition in fungal growth incubated for 48 hrs by microplate reader analysis
# Kodamaea ohmeri = test: Antifungal activity against multidrug-resistant Kodamaea ohmeri 396 assessed as inhibition in fungal growth incubated for 48 hrs by microplate reader analysis
# [Candida] auris [17] = Antifungal activity against multidrug-resistant Candida auris 389 assessed as inhibition in fungal growth incubated for 48 hrs by microplate reader analysis; details: Candidozyma auris
# Candida albicans [18] = test: Antifungal activity against Candida albicans ATCC 10231 assessed as reduction in fungal growth incubated for 48 hrs by microplate reader analysis
# Nakaseomyces glabratus [19] = test: Antifungal activity against Candida glabrata 2 assessed as inhibition in fungal growth incubated for 48 hrs by microplate reader analysis
# Nakaseomyces glabratus [20] = test: Antifungal activity against Candida glabrata 22 assessed as inhibition in fungal growth incubated for 48 hrs by microplate reader analysis
# [Candida] auris [21] = Antifungal activity against multidrug-resistant Candida auris 381 assessed as inhibition in fungal growth incubated for 48 hrs by microplate reader analysis; details: Candidozyma auris
# Nakaseomyces glabratus [22] = test: Antifungal activity against Candida glabrata 4 assessed as inhibition in fungal growth incubated for 48 hrs by microplate reader analysis
# Aspergillus fumigatus [23] = test: Antifungal activity against Aspergillus fumigatus MYA 3627 assessed as reduction in fungal viability incubated for 48 hrs by microplate reader analysis
# Candida albicans [24] = test: Antifungal activity against Candida albicans SC5314 assessed as inhibition in fungal growth incubated for 48 hrs in presence of 5% serum by microplate reader analysis
# Aspergillus fumigatus [25] = test: Antifungal activity against Aspergillus fumigatus ATCC MYA-3627 assessed as inhibition in fungal growth incubated for 48 hrs in presence of 10% serum by microplate reader analysis
# Pichia kudriavzevii [26] = test: Antifungal activity against Candida krusei 25 assessed as inhibition in fungal growth incubated for 48 hrs by microplate reader analysis
# Aspergillus terreus = test: Antifungal activity against Aspergillus terreus 191A6 assessed as reduction in fungal growth incubated for 48 hrs by microplate reader analysis
# Aspergillus fumigatus [27] = test: Antifungal activity against Aspergillus fumigatus NRRL5109 assessed as reduction in fungal viability incubated for 48 hrs by microplate reader analysis
# [Candida] auris [28] = Antifungal activity against multidrug-resistant Candida auris 383 assessed as inhibition in fungal growth incubated for 48 hrs by microplate reader analysis; details: Candidozyma auris
# Pichia kudriavzevii [29] = test: Antifungal activity against multidrug-resistant Candida krusei 397 assessed as inhibition in fungal growth incubated for 48 hrs by microplate reader analysis
# Aspergillus niger = test: Antifungal activity against Aspergillus niger FGSC A732 assessed as reduction in fungal viability incubated for 48 hrs by microplate reader analysis
# Cryptococcus neoformans [30] = test: Antifungal activity against Cryptococcus neoformans H99 assessed as inhibition in fungal growth incubated for 48 hrs in presence of 10% serum by microplate reader analysis
# Candida tropicalis [31] = test: Antifungal activity against Candida tropicalis 13 assessed as inhibition in fungal growth incubated for 48 hrs by microplate reader analysis
# Saccharomyces cerevisiae = test: Antifungal activity against multidrug-resistant Saccharomyces cerevisiae 400 assessed as inhibition in fungal growth incubated for 48 hrs by microplate reader analysis
# Candida albicans [32] = test: Antifungal activity against Candida albicans ATCC 10231 assessed as reduction in fungal viability incubated for 48 hrs by microplate reader analysis
# Cryptococcus neoformans [33] = test: Antifungal activity against Cryptococcus neoformans H99 assessed as reduction in fungal growth incubated for 48 hrs by microplate reader analysis
# Fusarium solani = test: Antifungal activity against Fusarium solani 243G2 assessed as reduction in fungal viability incubated for 48 hrs by microplate reader analysis
# Candida albicans [34] = test: Antifungal activity against Candida albicans 8 assessed as inhibition in fungal growth incubated for 48 hrs by microplate reader analysis
# Aspergillus fumigatus [35] = test: Antifungal activity against Aspergillus fumigatus NRRL5109 assessed as reduction in fungal growth incubated for 48 hrs by microplate reader analysis
# Aspergillus flavus = test: Antifungal activity against Aspergillus flavus NRRL485 assessed as reduction in fungal growth incubated for 48 hrs by microplate reader analysis
# [Candida] auris [36] = Antifungal activity against multidrug-resistant Candida auris 386 assessed as inhibition in fungal growth incubated for 48 hrs by microplate reader analysis; details: Candidozyma auris
smiles,measurement,setting,value
C[C@@H]1[C@H](O)[C@@H](C)/C=C/C=C/C=C/C=C/C=C/C=C/C=C/[C@H](O[C@@H]2O[C@H](C)[C@@H](O)[C@H](N)[C@@H]2O)C[C@@H]2O[C@](O)(C[C@@H](O)C[C@@H](O)[C@H](O)CC[C@@H](O)C[C@@H](O)CC(=O)O[C@H]1C)C[C@H](O)[C@H]2C(=O)O [AMPHOTERICIN B],MFC<=99.9,Pichia kudriavzevii [1],5 µM
same,MIC80,Nakaseomyces glabratus [2],0.3 µM
same,MIC80,[Candida] auris [3],2.5 µM
same,MIC80,Nakaseomyces glabratus [4],0.6 µM
same,MFC,Paecilomyces lilacinus,> 10 µM
same,MIC80,Paecilomyces lilacinus,> 10 µM
same,MIC80,Candida albicans [5],1.3 µM
same,MIC80,[Candida] auris [6],2.5 µM
same,MFC,Candida albicans [7],2.5 µM
same,MIC80,Candida albicans [7],0.6 µM
same,MIC80,Candida parapsilosis [8],1.3 µM
same,MFC,Candida parapsilosis [9],5 µM
same,MIC80,Candida parapsilosis [9],1.3 µM
same,MIC80,[Candida] haemuloni,5 µM
same,MIC80,Aspergillus fumigatus [10],< 0.1 µM
same,MFC,Candida tropicalis [11],2.5 µM
same,MIC80,Candida tropicalis [11],1.3 µM
same,MFC,Pichia kudriavzevii [12],5 µM
same,MIC80,Pichia kudriavzevii [12],2.5 µM
same,MFC<=99.9,Candida albicans [13],2.5 µM
same,MIC80,Nakaseomyces glabratus [14],0.3 µM
same,MIC80,Candida albicans [15],0.6 µM
same,MIC80,Nakaseomyces glabratus [16],0.2 µM
same,MIC80,Kodamaea ohmeri,1.3 µM
same,MIC80,[Candida] auris [17],5 µM
same,MFC,Candida albicans [18],2.5 µM
same,MIC80,Candida albicans [18],0.6 µM
same,MIC80,Nakaseomyces glabratus [19],0.3 µM
same,MIC80,Nakaseomyces glabratus [20],0.3 µM
same,MIC80,[Candida] auris [21],1.3 µM
same,MIC80,Nakaseomyces glabratus [22],1.3 µM
same,MFC<=99.9,Aspergillus fumigatus [23],2.5 µM
same,MIC80,Candida albicans [24],< 0.2 µM
same,MIC80,Aspergillus fumigatus [25],0.2 µM
same,MIC80,Pichia kudriavzevii [26],1.3 µM
same,MFC,Aspergillus terreus,10 µM
same,MIC80,Aspergillus terreus,2.5 µM
same,MFC<=99.9,Aspergillus fumigatus [27],5 µM
same,MIC80,[Candida] auris [28],2.5 µM
same,MIC80,Pichia kudriavzevii [29],2.5 µM
same,MFC<=99.9,Aspergillus niger,2.5 µM
same,MIC80,Cryptococcus neoformans [30],< 0.2 µM
same,MIC80,Candida tropicalis [31],0.2 µM
same,MIC80,Saccharomyces cerevisiae,1.3 µM
same,MFC<=99.9,Candida albicans [32],2.5 µM
same,MFC,Cryptococcus neoformans [33],2.5 µM
same,MIC80,Cryptococcus neoformans [33],1.3 µM
same,MFC<=99.9,Fusarium solani,1.3 µM
same,MIC80,Candida albicans [34],0.6 µM
same,MFC,Aspergillus fumigatus [35],5 µM
same,MIC80,Aspergillus fumigatus [35],2.5 µM
same,MFC,Aspergillus flavus,10 µM
same,MIC80,Aspergillus flavus,5 µM
same,MIC80,[Candida] auris [36],2.5 µM
CC[C@H](C)C[C@H](C)C[C@H](C)C[C@@H]1NC(=O)[C@H](C(C)C)N(C)C(=O)[C@@H]([C@H](C)CC)OC(=O)[C@H](C(C)(C)O)N(C)C(=O)[C@H](CC(C)C)NC(=O)[C@H](C(C)C)N(C)C(=O)[C@H]([C@H](C)CC)NC(=O)[C@@H]2CCCN2C(=O)CN(C)C1=O,MFC<=99.9,Pichia kudriavzevii [1],2.5 µM
same,MIC80,Nakaseomyces glabratus [2],0.6 µM
same,MIC80,[Candida] auris [3],2.5 µM
same,MIC80,Nakaseomyces glabratus [4],0.3 µM
same,MFC,Paecilomyces lilacinus,> 10 µM
same,MIC80,Paecilomyces lilacinus,2.5 µM
same,MIC80,Candida albicans [5],0.6 µM
same,MIC80,[Candida] auris [6],1.3 µM
same,MFC,Candida albicans [7],1.3 µM
same,MIC80,Candida albicans [7],0.3 µM
same,MIC80,Candida parapsilosis [8],2.5 µM
same,MFC,Candida parapsilosis [9],2.5 µM
same,MIC80,Candida parapsilosis [9],2.5 µM
same,MIC80,[Candida] haemuloni,0.3 µM
same,MIC80,Aspergillus fumigatus [10],2.5 µM
same,MFC,Candida tropicalis [11],2.5 µM
same,MIC80,Candida tropicalis [11],1.3 µM
same,MFC,Pichia kudriavzevii [12],2.5 µM
same,MIC80,Pichia kudriavzevii [12],1.3 µM
same,MFC<=99.9,Candida albicans [13],1.3 µM
same,MIC80,Nakaseomyces glabratus [14],0.2 µM
same,MIC80,Candida albicans [15],2.5 µM
same,MIC80,Nakaseomyces glabratus [16],0.3 µM
same,MIC80,Kodamaea ohmeri,2.5 µM
same,MIC80,[Candida] auris [17],2.5 µM
same,MFC,Candida albicans [18],1.3 µM
same,MIC80,Candida albicans [18],0.6 µM
same,MIC80,Nakaseomyces glabratus [19],0.2 µM
same,MIC80,Nakaseomyces glabratus [20],0.6 µM
same,MIC80,[Candida] auris [21],2.5 µM
same,MIC80,Nakaseomyces glabratus [22],1.3 µM
same,MFC<=99.9,Aspergillus fumigatus [23],5 µM
same,MIC80,Candida albicans [24],0.2 µM
same,MIC80,Aspergillus fumigatus [25],2.5 µM
same,MIC80,Pichia kudriavzevii [26],1.3 µM
same,MFC,Aspergillus terreus,> 10 µM
same,MIC80,Aspergillus terreus,2.5 µM
same,MFC<=99.9,Aspergillus fumigatus [27],5 µM
same,MIC80,[Candida] auris [28],2.5 µM
same,MIC80,Pichia kudriavzevii [29],2.5 µM
same,MFC<=99.9,Aspergillus niger,>10 µM
same,MIC80,Cryptococcus neoformans [30],< 0.2 µM
same,MIC80,Candida tropicalis [31],0.6 µM
same,MIC80,Saccharomyces cerevisiae,2.5 µM
same,MFC<=99.9,Candida albicans [32],1.3 µM
same,MFC,Cryptococcus neoformans [33],2.5 µM
same,MIC80,Cryptococcus neoformans [33],0.6 µM
same,MFC<=99.9,Fusarium solani,2.5 µM
same,MIC80,Candida albicans [34],0.6 µM
same,MFC,Aspergillus fumigatus [35],5 µM
same,MIC80,Aspergillus fumigatus [35],2.5 µM
same,MFC,Aspergillus flavus,> 10 µM
same,MIC80,Aspergillus flavus,1.3 µM
same,MIC80,[Candida] auris [36],2.5 µM
